In patent US11623002B2, “ALK polypeptides and methods of use thereof” (Elicio Therapeutics, Inc., priority 2016, dated 2023):
“Also recorded” adds a separate entry of the source.

Columns and labels:
CD4 T-cell = assay: Intracellular cytokine staining (ICS), CD4 T-cell response to individual ALK polypeptides; type: cell-based; conditions: spleen and lymph node cells of mice immunized with SEQ ID NOs: 1-59 mixed with Freund's adjuvant; re-stimulated with individual ALK polypeptides; FIGS. 2A and 2B
From the text: (§1) To identify the immunodominant ALK polypeptides, mice were immunized with ALK polypeptides having the sequences of SEQ ID NOs: 1-59 listed in Table 1A mixed with Freund's adjuvant. Spleens and lymph nodes were then removed from immunized mice and assayed by intracellular cytokine staining (ICS).

CD8 T-cell = assay: Intracellular cytokine staining (ICS), CD8 T-cell response to individual ALK polypeptides; type: cell-based; conditions: spleen and lymph node cells of mice immunized with SEQ ID NOs: 1-59 mixed with Freund's adjuvant; re-stimulated with individual ALK polypeptides; FIGS. 2C and 2D
From the text: as §1

Row | Sequence | CD4 T-cell responses (ICS) (CD4 T-cell) | CD8 T-cell response (ICS) (CD8 T-cell)
1 | GDLKSFLRETRPRPS [SEQ ID NO: 22] | strongest CD4 T-cell responses | –
2 | KNCPGPVYRIMTQCW [SEQ ID NO: 52] | strongest CD4 T-cell responses | –
3 | LDFLMEALIISKFNH [SEQ ID NO: 14] | strongest CD4 T-cell responses | strongest CD8 T-cell response
4 | LTCPGPGRVAKIGDF [SEQ ID NO: 33] | – | strongest CD8 T-cell response; also recorded: CD8 T-cell (CD8) stimulating sequence
5 | PSPLQVAVRTLPEVC [SEQ ID NO: 10] | strongest CD4 T-cell responses | strongest CD8 T-cell response
6 | PVYRIMTQCWQHQPE [SEQ ID NO: 53] | strongest CD4 T-cell responses | –
7 | QNIVRCIGVSLQSLP [SEQ ID NO: 17] | strongest CD4 T-cell responses | –
